Data published in a melting point compilation (Tetko et al.; mined from patent text by program, amines drawn as free bases though some values may be those of a salt).

| Structure (SMILES) | melting point [°C] |
| --- | --- |
| CCOC(=O)C=C1CN=C(c2ccccc2Cl)c2cc(Cl)ccc2N1 | 103 to 105 |
| O=C(c1cc(-n2cnnn2)ccc1O)N1CCC(CCO)(c2ccccc2)C1 (stereo unspecified) | 86 to 96 |
| CCC(CC)N(O)C(=O)NCCCCCCCCNC(=O)N(O)C(CC)CC | 89 to 90 |
| CC(C)(C)COc1ccc(NC(=O)c2ccn(-c3ccc(F)cc3)c2)cc1C#N | 167 to 169 |
| CCC(=NC#N)N[C@@H]1c2cc(C#N)ccc2OC(C)(C)[C@H]1O (relative stereo) | 122 to 124 |
| CC1(C2CCCC2)Cc2cc(OS(=O)(=O)C(F)(F)F)c(Cl)c(Cl)c2C1=O (single isomer, unassigned; (+)) | 104 to 106 |
| OC1=NC2CCCc3cccc(c32)N1 (stereo unspecified) | 230 to 233 |
| COc1cc2c(cc1OC)CN(c1c(C)c(C)c3c(c1C)C(c1ccc(C)cc1)C(C)(C)O3)C2 (stereo unspecified) | 156 to 159 |
| O=[N+]([O-])c1ccc(Sc2ccc(C(F)(F)F)cc2)c2nonc12 | 134 to 138 |
| O=P(c1ccccc1)(c1ccccc1)c1cc(P(=O)(c2ccccc2)c2ccccc2)nc(P(=O)(c2ccccc2)c2ccccc2)n1 | 235 to 236 |
| Cc1noc(NS(=O)(=O)c2cc(OCc3ccccc3)ccc2-c2ccc(CC(C)C)cc2)c1C | 96 to 101 |
| COc1ccc(CCNC(=O)OC(C)(C)C)cc1OC | 63 to 67 |
| O=c1c2[nH]cnc2n(CC2CCCCC2)c(=O)n1CC1CC1 | 181 |
| COc1ccc(C(OCC2OC(n3cnc4c(N)nc(F)nc43)CC2O)(c2ccccc2)c2ccc(OC)cc2)cc1 (stereo unspecified) | 239 to 243 |
| O=C(O)C(=Cc1ccco1)SSC(=Cc1ccco1)C(=O)O | 215 |
| C#CC[C@@H](N)c1nc2cccnc2c(=O)n1Nc1ccccc1 | 206 to 208 |
| Cc1c(C2CCN(C)CC2)[nH]c(=O)c2ccccc12 | 202 to 204 |
| Oc1cccc(N(c2ccccc2)c2ccc(-c3ccc(N(c4ccccc4)c4cccc(O)c4)cc3)cc2)c1 | 113 to 117 |
| Cc1ccccc1C=Nc1c2c(nc3ccccc13)CCCC2 | 160 to 162 |

| Structure (SMILES) | melting point [°C] |
| --- | --- |
| Cc1nc(C(c2c(Cl)cccc2Cl)n2cncn2)nc(C)c1N (stereo unspecified) | 158 to 159 |
| N=C(N)N1CCN(C23CC4CC(CC(C4)C2)C3)CC1 | 182 to 186 |
| COCC(=O)Nc1cccc(-c2ccnc(NCCc3ccc(OC)c(OC)c3)n2)c1 | 140 to 141 |
| CC[C@H](C)C(=O)c1ccc(-c2ccc(OC)cc2)cc1 | 119 to 120 |
| COc1cc(C)ccc1OC(=O)c1ccccc1 | 73 to 75 |
| Cc1cc(C(O)(COc2ccc(Cl)cc2)C(F)(F)F)ccc1NC(=O)c1cccc(I)c1C(=O)NC(C)C (stereo unspecified) | 90 to 95 |
| COc1cccc(N(C)CCNC(C)=O)c1 | 69 to 71 |
| CC(C)NC1=NS(=O)(=O)c2cc(F)c(NC(C)C)cc2N1 | 234 to 237 |
| O=C(O)CCC1CC(c2ccccc2)CCC1O (stereo unspecified) | 154 to 155 |
| Cn1c([N+](=O)[O-])cnc1C(Cl)Cl | 52 |
| Cc1ccc(S(=O)(=O)C(CC(=O)C(C)(C)C)c2ccc(Cl)cc2)cc1 (stereo unspecified) | 170 to 171 |
| c1cc(-c2n[nH]c3c2Cc2ccc(CN4CCSCC4)cc2-3)cs1 | 193 to 195 |
| CC(C)(C)OC(=O)N[C@H]1CC[C@H](CCN2CCN(c3cccc(Cl)c3Cl)CC2)CC1 | 150 to 154 |
| O=C(O)c1cnccc1-c1ccccc1 | 245 to 246 |
| O=C(CCc1ccc(NC2=NCCN2)cc1)c1ccc(N2CCOCC2)cc1 | 196 to 198 |
| O[C@H](CCc1cccnc1)COc1ccc(Br)cc1 | 65 to 66 |
| CC(C)(N)CCOc1ccc(Cl)nn1 | 63.5 to 65 |
| Cn1c([N+](=O)[O-])cnc1C=O | 90 to 94 |
| CC(=O)NCCCCCC1CCSS1 (stereo unspecified) | 28 to 33 |

| Structure (SMILES) | melting point [°C] |
| --- | --- |
| CC(C)(C)c1cc(OCc2ccccc2-c2nnn[nH]2)cc(C(C)(C)C)c1O | 149 to 150 |
| O=C1CC[C@H]2N1CCN1C(=O)C[C@H]3CCCC[C@@]321 (relative stereo) | 135 to 136 |
| O=C1C2=C(SCCO2)C(O)N1c1ccc2ccc(Cl)cc2n1 (stereo unspecified) | 270 |
| Cc1nn2c(-c3cccc(NC(=O)CC(C)C)c3)ccnc2c1C(=O)c1cccs1 | 137 to 139 |
| O=C(NC(=O)c1c(F)cccc1F)Nc1ccc(C(O)(C(F)(F)F)C(F)(F)F)cc1 | 205 to 207 |
| O=c1ncc(Br)cn1CCCl | 185 to 186 |
| CCSc1nc(C#N)c(C#N)nc1Cl | 55 to 58.5 |
| O=C(CC(=O)c1ccc(C(F)(F)F)cc1[N+](=O)[O-])c1ccccc1 | 101 to 103 |
| CCCCCCCCCCCCOC(=O)C(N)CCCNC(=N)N (stereo unspecified) | 125 to 130 |
| CC(=O)Nc1ccc(C(=O)C2CCN(CC(=O)c3ccc(F)cc3)CC2)cc1 | 168 to 170 |
| C=C1CCC2C3Cc4ccc(O)cc4C2(CCN3CC2CC2)C1 (stereo unspecified) | 220 to 223 |
| Cc1nc(-c2cccc(C(F)(F)F)c2)ccc1C=O | 61 to 63 |
| O=C(C=Cc1ccc(-c2ccc(Cl)cc2)cc1)NC(Cc1ccc(OCc2ccccc2)cc1)C(=O)O (stereo unspecified) | 253 to 254 |
| Clc1ccc(Oc2cc(Br)c(Cl)cc2OCc2ccccc2)c(Cl)c1 | 86 to 88 |
| COCCOc1ccc(CCCNS(=O)(=O)CCCc2ccccc2)c(Oc2ncc(C(F)(F)F)cc2Cl)c1 | 102 |
| CC(=O)Nc1nc2c(Oc3cc(-c4ccc(C(F)(F)F)cc4Cl)ncn3)cccc2s1 | 263 to 264 |
| O=C1CCCN1C(=O)Oc1ccc(Cl)cc1 | 99 to 100 |
| CC(=O)SCCNC(=O)[C@H](CSC(C)=O)NC(=O)C(C)C | 125 to 127 |
| CCN(CC)CCC(=O)Nc1ccc(NC(=O)Nc2ccc(N(CCCl)CCCl)cc2)cc1 | 178 to 179 |

Continued, values first:

| melting point [°C] | Structure (SMILES) |
| --- | --- |
| 113 to 115 | CCOC(=O)c1c(C(F)(F)F)nc(C(F)(F)F)c(C(=O)O)c1Cl |
| > 250 | COc1ccc(-c2ccn3c(=O)c(C(=O)O)ccc3c2)cc1 |
| 192 to 194 | CCCc1nc2c(N)nc3cc(F)ccc3c2s1 |
| 250 to 253 | COC(=O)c1cccc2[nH]c(=O)n(Cc3ccc(-c4ccccc4C#N)cc3)c12 |
| 166 | CCOC(=O)c1cn(N=C(C)C)c2c(F)c(F)c(F)cc2c1=O |
| 105 to 107 | CCOC(=O)CCCCn1c(=O)[nH]c2ccc(O)cc2c1=O |
| 205 to 206 | COc1ccc(-c2c(/C=C\C(=O)O)cnn2C)cc1 |
| 232 to 234 | COC(=O)/C=C/c1ccc2nn(C)cc2c1C(=O)OC |
| 95 to 100 | CCOC(=O)c1c[nH]nc1-c1ccc(Cl)cc1 |
| 123 to 128 | CC(C)C(C)(C#N)N1C(=O)c2ccc3c(ccn3C)c2C1=O (stereo unspecified) |
| 168 | COCc1ccc(Oc2cncc3sc(C(N)=O)cc23)cc1 |
| 165 to 166 | NS(=O)(=O)c1cc(CCNC(=O)/C=C/c2cccs2)ccc1-c1ccco1 |
| > 200 | CC(=O)Nc1nc(N2CCc3ccccc3CC2)c([N+](=O)[O-])c(=O)[nH]1 |
| 65 to 66 | CCOC(=O)c1ccc([N+](=O)[O-])cc1CBr |
| 203 to 208 | COC(=O)/C=C/n1cnc2c(OC)cccc2c1=O |
| 152 to 154 | NC(=O)Cc1ccc2c(c1)C(=O)Cc1ccccc1O2 |
| 319 to 321 | CC(C)c1nc2c([nH]1)c(=O)[nH]c(=O)n2Cc1cccc(Cl)c1 |
| 131 to 133 | CCCCc1oc2ccccc2c1C(=O)Nc1ccc2cc(OCC(=O)OC)ccc2c1 |
| 125 to 127 | Cc1cc(SCc2cccc3nn(-c4ccc(C(F)(F)F)cc4)cc23)ccc1OC(C)(C)C(=O)O |
| 270 to 272 | C=CCC(c1c(Cl)c(Cl)cc2[nH]c(=O)c(=O)[nH]c12)S(C)(=O)=O (stereo unspecified) |
| 132 to 134 | O=C(NCCO)/C(=C/c1ccc(OC2CC2)cc1)NC(=O)c1ccc(OCCC2CC2)cc1 |
| 208 to 212 | CS(=O)(=O)c1ccc2c(c1)C=C(C(=O)O)C(C(F)(F)F)O2 (stereo unspecified) |

| melting point [°C] | Structure (SMILES) |
| --- | --- |
| 180 to 182 | Cc1ccc(S(=O)(=O)NCCCCOc2ccc(-c3nnn[nH]3)cc2)cc1 |
| 181 | O=C1c2ccccc2S(=O)(=O)N1CCNCC1COc2ccccc2O1 (stereo unspecified) |
| 232 | COc1ccc2cccc(N3C(=O)CNCC3=O)c2c1 |
| 30 to 34 | CCOC(=O)c1c(C)nc(NCCCN(C)C)c2nnn(CC)c12 |
| 99 to 101 | O=C1C[C@@H](C(=O)O)N(C(=O)OCc2ccccc2)C1 |
| 38 | COC1=C(OC)C(=O)C(CCCCCCCCCCOC(C)=O)=C(C)C1=O |
| 208 to 209 | O=c1cc(N2CCNCC2)oc2c1ccc1ccccc12 |
| 99.5 to 100 | CC1(C)SCN(CCCCN2CCN(c3nc4ccccc4s3)CC2)C1=O |
| 238 to 249 | Cn1c(-c2ccc(-c3ccccn3)cc2)c(C(=O)N2CCC(OCC(=O)O)CC2)c(=O)n1-c1ccc(C(=N)N)cc1 |
| 127 to 129 | COC(=O)c1sc2ccc(OC)cc2c1OC(C)C#N (stereo unspecified) |
| 108 to 111 | Cc1cc(C)c(-n2ccc3c(OC(C)C)nn(C)c(=O)c32)c(C)c1 |
| 45 to 46 | CCOC(=O)CCCOc1ccc(C23CC4CC(CC(C4)C2)C3)cc1 |
| 175 | C#CCSc1nn(C(=O)NS(=O)(=O)c2c(C)csc2C(=O)OCC)c(=O)n1C |
| > 310 | O=C1Cc2cc(C3=NNC(=O)SC3)ccc2N1 |
| 140 to 148 | COC(=O)C1Cc2c([nH]c3ccccc23)C(c2ccc(OC)c(O)c2)N1 (stereo unspecified) |
| 156 to 159 | CCOC(=O)Cc1ccc(N(C)c2nc(=O)c3cccnc3s2)cc1 |
| > 300 | O=c1[nH]c2cc(Cl)ccc2c(O)c1Sc1ccccc1Cl |
| 128 to 129 | COC(=O)CCc1[nH]c(Cc2ccc(OCc3nc(-c4ccccc4)oc3C)cc2)nc1-c1ccccc1 |
| 275 to 277 | CCn1ncc2c(NCC3CCCCC3)c3cc(C(=O)OC)ccc3nc21 |
| 80 to 82 | CCOC(=O)C(=Cc1ccc(F)cc1)C(C)=O |
| 126 to 127 | Cc1nc(-c2ccc(C(F)(F)F)cc2)sc1COc1ccc(CC(=O)O)cc1Cl |
| 135 to 136 | COC(=O)c1ccc(OCC2COC(=O)N2c2ccc(Cl)cc2)cc1 (stereo unspecified) |
